Measurements reported in ChEMBL document CHEMBL1129369, “Forskolin carbamates: binding and activation studies with type I adenylyl cyclase” (J Med Chem, 1996).

Columns and labels:
[1] = biological target: T1, Adenylate cyclase type 1 (Homo sapiens, UniProt Q08828); test: Ability to activate the conversion of [32P] ATP to [32P]-cyclic AMP mediated by adenylate cyclase 1; assay type: functional
Target sequence in this assay (Q08828 whole entry): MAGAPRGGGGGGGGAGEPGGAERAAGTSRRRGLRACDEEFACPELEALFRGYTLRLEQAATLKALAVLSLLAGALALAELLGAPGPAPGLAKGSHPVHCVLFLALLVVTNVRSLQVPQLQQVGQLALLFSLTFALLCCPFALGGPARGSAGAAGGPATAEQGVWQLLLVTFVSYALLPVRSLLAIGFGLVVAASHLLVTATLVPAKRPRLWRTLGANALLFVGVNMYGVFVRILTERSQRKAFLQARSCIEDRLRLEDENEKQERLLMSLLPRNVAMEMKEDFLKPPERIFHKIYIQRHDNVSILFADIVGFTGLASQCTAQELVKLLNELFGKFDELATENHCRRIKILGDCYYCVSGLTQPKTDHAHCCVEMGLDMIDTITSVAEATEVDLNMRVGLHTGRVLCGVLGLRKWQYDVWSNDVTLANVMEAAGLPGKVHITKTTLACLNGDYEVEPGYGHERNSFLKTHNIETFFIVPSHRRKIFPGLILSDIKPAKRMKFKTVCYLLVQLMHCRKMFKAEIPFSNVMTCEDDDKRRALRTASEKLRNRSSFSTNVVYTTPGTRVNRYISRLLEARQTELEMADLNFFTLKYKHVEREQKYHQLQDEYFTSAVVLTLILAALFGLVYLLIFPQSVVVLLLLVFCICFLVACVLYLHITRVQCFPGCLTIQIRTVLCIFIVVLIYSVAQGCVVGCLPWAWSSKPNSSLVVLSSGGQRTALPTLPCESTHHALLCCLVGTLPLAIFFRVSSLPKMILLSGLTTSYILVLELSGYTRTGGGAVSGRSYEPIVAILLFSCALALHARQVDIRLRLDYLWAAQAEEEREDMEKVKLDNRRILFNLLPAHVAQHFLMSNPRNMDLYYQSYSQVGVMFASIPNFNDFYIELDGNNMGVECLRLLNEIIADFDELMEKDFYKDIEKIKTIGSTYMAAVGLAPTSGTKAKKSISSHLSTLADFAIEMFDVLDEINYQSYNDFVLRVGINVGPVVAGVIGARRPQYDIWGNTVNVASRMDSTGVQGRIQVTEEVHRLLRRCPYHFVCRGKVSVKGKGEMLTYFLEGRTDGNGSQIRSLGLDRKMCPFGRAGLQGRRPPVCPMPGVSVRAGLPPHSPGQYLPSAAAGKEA

[2] = biological target: T1, Adenylate cyclase type 1; test: Conversion of [32P] ATP to [32P]-cyclic AMP mediated by adenylate cyclase 1; assay type: functional; conditions: read-out: EC50
Target sequence in this assay (Q08828 whole entry): as above

[3] = biological target: T1, Adenylate cyclase type 1; test: (§1) Inhibition of [125 I]6-IHPP-forskolin binding to adenylate cyclase 1
Target sequence in this assay (Q08828 whole entry): as above

[4] = biological target: T1, Adenylate cyclase type 1; test: as §1; remark: listed apart in the source
Target sequence in this assay (Q08828 whole entry): as above

[5] = biological target: T1, Adenylate cyclase type 1; test: Maximum stimulation activity measured with 100 uM forskolin mediated by adenylate cyclase 1; assay type: functional
Target sequence in this assay (Q08828 whole entry, looked up): as the sequence (Q08828 whole entry) above

SMILES | EC50 [1] | EC50 [2] | IC50 [3] | IC50 [4] | Activity [5]
C=C[C@@]1(C)CC(=O)[C@]2(O)[C@@]3(C)[C@@H](O)CCC(C)(C)[C@@H]3[C@H](OC(=O)NCC(C)C)[C@H](OC(C)=O)[C@@]2(C)O1 | > 2000 nM | 4100 nM | 167 nM | > 150 nM | 93%
C=C[C@@]1(C)CC(=O)[C@]2(O)[C@@]3(C)[C@@H](O)CCC(C)(C)[C@@H]3[C@H](OC(=O)NCCC(=O)OCC)[C@H](O)[C@@]2(C)O1 | > 2000 nM | 6500 nM | 171 nM | > 150 nM | 75%
C=C[C@@]1(C)CC(=O)[C@]2(O)[C@@]3(C)[C@@H](O)CCC(C)(C)[C@@H]3[C@H](O)[C@H](OC(=O)NCCc3ccc(O)cc3)[C@@]2(C)O1 | < 2000 nM | 1400 nM | 95 nM | < 150 nM | 45%
C=CCNC(=O)O[C@H]1[C@H]2C(C)(C)CC[C@H](O)[C@]2(C)[C@@]2(O)C(=O)C[C@](C)(C=C)O[C@]2(C)[C@H]1OC(C)=O | > 2000 nM | 4400 nM | 76 nM | < 150 nM | 80%
C=C[C@@]1(C)CC(=O)[C@]2(O)[C@@]3(C)[C@@H](O)CCC(C)(C)[C@@H]3[C@H](OC(=O)NCCc3ccc(N)cc3)[C@H](OC(C)=O)[C@@]2(C)O1 | < 2000 nM | 500 nM | 39 nM | < 150 nM | 55%
C=C[C@@]1(C)CC(=O)[C@]2(O)[C@@]3(C)[C@@H](O)CCC(C)(C)[C@@H]3[C@H](OC(=O)NCCN3CCCCC3)[C@H](O)[C@@]2(C)O1 | < 2000 nM | 1700 nM | 123 nM | < 150 nM | 80%
C=C[C@@]1(C)CC(=O)[C@]2(O)[C@@]3(C)[C@@H](O)CCC(C)(C)[C@@H]3[C@H](OC(=O)NCCc3ccc(O)cc3)[C@H](O)[C@@]2(C)O1 | < 2000 nM | 630 nM | 236 nM | > 150 nM | 86%
C=C[C@@]1(C)CC(=O)[C@]2(O)[C@@]3(C)[C@@H](O)CCC(C)(C)[C@@H]3[C@H](OC(=O)NCCC(C)(C)C)[C@H](OC(C)=O)[C@@]2(C)O1 | > 2000 nM | 8100 nM | 271 nM | > 150 nM | 84%
C=C[C@@]1(C)CC(=O)[C@]2(O)[C@@]3(C)[C@@H](O)CCC(C)(C)[C@@H]3[C@H](OC(=O)NCCN(C)C)[C@H](O)[C@@]2(C)O1 | > 2000 nM | 4900 nM | 247 nM | > 150 nM | 131%
C=C[C@@]1(C)CC(=O)[C@]2(O)[C@@]3(C)[C@@H](O)CCC(C)(C)[C@@H]3[C@H](O)[C@H](OC(=O)NCCc3ccccc3)[C@@]2(C)O1 | > 2000 nM | 2100 nM | 251 nM | > 150 nM | 75%
C=C[C@@]1(C)CC(=O)[C@]2(O)[C@@]3(C)[C@@H](O)CCC(C)(C)[C@@H]3[C@H](OC(=O)NCCC(=O)OCC)[C@H](OC(C)=O)[C@@]2(C)O1 | > 2000 nM | 3500 nM | 44 nM | < 150 nM | 157%
C=C[C@@]1(C)CC(=O)[C@]2(O)[C@@]3(C)[C@@H](O)CCC(C)(C)[C@@H]3[C@H](O)[C@H](OC(=O)NCCC)[C@@]2(C)O1 | < 2000 nM | 1300 nM | 89 nM | < 150 nM | 101%
C=C[C@@]1(C)CC(=O)[C@]2(O)[C@@]3(C)[C@@H](O)CCC(C)(C)[C@@H]3[C@H](OC(=O)NCCN3CCCCC3)[C@H](OC(C)=O)[C@@]2(C)O1 | < 2000 nM | 500 nM | 82 nM | < 150 nM | 100%
C=C[C@@]1(C)CC(=O)[C@]2(O)[C@@]3(C)[C@@H](O)CCC(C)(C)[C@@H]3[C@H](O)[C@H](OC(=O)NCCOC)[C@@]2(C)O1 | > 2000 nM | 1600 nM | 174 nM | > 150 nM | 97%
C=C[C@@]1(C)CC(=O)[C@]2(O)[C@@]3(C)[C@@H](O)CCC(C)(C)[C@@H]3[C@H](OC(=O)NCCc3ccccn3)[C@H](OC(C)=O)[C@@]2(C)O1 | < 2000 nM | 600 nM | 21 nM | < 150 nM | 97%
C=CCNC(=O)O[C@H]1[C@H]2C(C)(C)CC[C@H](O)[C@]2(C)[C@@]2(O)C(=O)C[C@](C)(C=C)O[C@]2(C)[C@H]1O | > 2000 nM | 3500 nM | 306 nM | > 150 nM | 94%
C=CCNC(=O)O[C@H]1[C@@H](O)[C@H]2C(C)(C)CC[C@H](O)[C@]2(C)[C@@]2(O)C(=O)C[C@](C)(C=C)O[C@]12C | > 2000 nM | 2400 nM | 157 nM | > 150 nM | 102%
C=C[C@@]1(C)CC(=O)[C@]2(O)[C@@]3(C)[C@@H](O)CCC(C)(C)[C@@H]3[C@H](OC(=O)NCCC(C)(C)C)[C@H](O)[C@@]2(C)O1 | > 2000 nM | 2100 nM | 680 nM | > 150 nM | 63%
